The values below come from article PMC12195707, “Evaluation of Antitumoral Activity in a 3D Cell Model of a Src Inhibitor Prodrug for Glioblastoma Treatment” (Pharmaceutics, 2025).

For one series, the system named is orthotopic GBM model. Also noted: method as in PMID 28650650. The settings on record: compared with SI306; cited from earlier work.
A short description of series [1]: PAMPA assay, blood-brain barrier (BBB) membrane. How it is done:
(§1) After being first dissolved in DMSO, the compounds were diluted 1:1 v/v using phosphate buffer (PBS 10 mM, pH 7.4). […] The gastrointestinal (GI) and blood–brain barrier (BBB) phospholipidic bilayers were mimicked by covering each well of the filter plate with either a 10%w/v CHCl3/dodecane brain polar lipid solution or a 1%w/v L-α-phosphatidylcholine solution (PC) in dodecane. After placing a DMSO/PBS 1:1v/v combination solution in the acceptor plate, the sandwich was gently shaken and incubated at room temperature for four hours. Samples were collected from the upper and bottom plates at the end time point, and the LC-UV/MS method was used for analysis. As previously reported, the apparent permeability (Papp cm/s × 10^−6) was quantified.
On the technique in general: The PAMPA barrier holds no transporters, so it reflects passive diffusion.

Series [2] can be described thus: PAMPA assay, gastrointestinal (GI) membrane. The settings on record: four hours. The series is classed as in vitro ADME. How it is done:
as §1

Take `CN1CCN(CCOC(=O)N(c2cccc(Br)c2)c2nc(SCCN3CCOCC3)nc3c2cnn3CC(Cl)c2ccccc2)CC1` (centres unmarked) [SI306-PD1]: in the series on orthotopic GBM model, the “Efficacy in orthotopic GBM model” value is given as “greater efficacy than SI306”.

On to `CC(C)NCC(O)COc1cccc2ccccc12` (centres unmarked) [Propranolol, propranolol, reference compound], for which, in series [1] (BBB PAMPA, room temperature, four hours), the “Apparent permeability Papp” value is 17.16 ± 0.31 cm/s × 10^−6. In addition, the “Membrane retention MR” value in series [1] (PAMPA, 4 h, pH 7.4) was determined as 10.73 ± 1.33%; in series [2] (room temperature), 8.89 ± 1.12%. Besides, the Papp at 4 h in series [2] (pH 7.4, room temperature, read-out: Apparent permeability Papp) came out at 19.2 ± 0.37 ×10⁻⁶ cm/s.

Usually Papp stands for the rate of passage across a membrane or cell layer, normalised by area and donor concentration.
